This is an account of results in ChEMBL document CHEMBL1141812, “bis-5-Alkylresorcinols from Panopsis rubescens that inhibit DNA polymerase beta” (J Nat Prod, 1999).

The target in one assay is DNA polymerase beta (Rattus norvegicus, UniProt P06766). Description: Inhibition of rat DNA polymerase beta assessed as [3H]TTP incorporation after 60 mins by scintillation counting in presence of bovine serum albumin.
Assay [1] has as its target DNA polymerase beta (Rattus norvegicus) (UniProt P06766). Description: Inhibition of rat DNA polymerase beta assessed as [3H]TTP incorporation at 50 ug/mL after 60 mins by scintillation counting.
Assay [2] shares this target. Description: Inhibition of rat DNA polymerase beta assessed as [3H]TTP incorporation at 10 ug/mL after 60 mins by scintillation counting.

The structures appear in SMILES notation.

The term IC50 denotes the concentration at which inhibition is half-maximal. Broadly, the inhibition is the relative decrease from the control value, in per cent.

Turning to `Oc1cc(O)cc(CCCCCC/C=C\CCCCCCc2cc(O)cc(O)c2)c1`, the IC50 on DNA polymerase beta came out at 6.5 µM. Moreover, the inhibition in assay [1] turned out to be 92%; in assay [2], 44%.
As to `Oc1cc(O)cc(CCCCCCCCCCCCCCc2cc(O)cc(O)c2)c1` [BISNORSTRIATOL], at DNA polymerase beta, the IC50 amounted to 5.8 µM. For the same molecule, the inhibition in assay [1] is 79%; in assay [2], 50%.
In the same order, the values of `Oc1cc(O)cc(CCC/C=C\CCCCCCCCCc2cc(O)cc(O)c2)c1` are 7.5 µM, 98% and 51%.
